Patent publication US9556132B2, “Tetrazole derivatives and their use as potassium channel modulators” (SANIONA A/S, priority 2012, dated 2017)

Biological target: human IK (Homo sapiens (Human), UniProt O15554)
Assay: Inhibition of IK channels expressed in HEK293 cells, thallium (I) sensitive FLIPR assay
Type: cell-based
Conditions: HEK293 cells over-expressing human IK; Tl+-sensitive BTC fluorescence (FLIPR); inhibition of activity induced by Ca2+-ionophore A23187
Protocol: Following experiment determines the ability of a test compound to inhibit the activity of IK channels heterologously expressed in human HEK293 cells, and was used as the primary screen. The ability is determined as per cent inhibition of the activity induced by addition of the Ca^2+-ionophore A23187 (considered a maximum response). The activity is determined using a standard thallium (I) sensitive assay, e.g. using a fluorometric method in a Fluorescent Image Plate Reader (FLIPR) as described below in more detail.
Full concentration/response curves are generated and IC50 values are calculated based on the degree of inhibition of the maximum response. IC50 values (Inhibitory Concentration) represent the concentration of the test substance at which 50% of the maximum channel activity is inhibited.
Human HEK293 cells over-expressing human IK are grown in culture medium (DMEM supplemented with 10% foetal bovine serum), in polystyrene culture flasks ([…]) in a humidified atmosphere of 5% CO2 in air, at 37° C. Cell confluence should be 80-90% on day of plating. Cells are rinsed with 4 mL of PBS (phosphate buffered saline) and incubated 2 min with 1 mL of Trypsin-EDTA. After addition of 25 mL of culture medium cells are re-suspended by trituration with a 25 mL pipette.
The cells are seeded at a density of ˜3×10^6 cells/mL (25 μL/well) in black-walled, clear bottom, 384-well plates pre-treated with 0.01 g/L poly-D-lysin (20 μL/well for ≧30 min). Plated cells were allowed to proliferate for 24 h before loading with dye.
BTC-AM ([…], Invitrogen) is added 25.5 μl DMSO. The BTC-AM stock solution (2 mM) is diluted to a final concentration of 2 μM in […] assay buffer (in mM: 140 Na^+-gluconate, 2.5 K^+-gluconate, 6 Ca2^+-gluconate, 1 Mg^2+ gluconate, 5 glucose, 10 HEPES, pH 7.3) containing 2 μM ouabain, 2 mM amaranth and 1 mM tartrazine.
The culture medium is aspirated from the wells, and 25 μl of the BTC-AM loading solution are added to each well. The cells are incubated at 37° C. for 60 min.
After the loading period, the Tl^+-sensitive BTC fluorescence signal is measured over time using a FLIPR.
• Temperature: Room temp. • First addition: 12 μl test or control compound after 15 sec at a rate of 30 μL/sec and starting height of 20 μL • Second addition: 12 μL stimulus buffer (Cl^− free assay buffer supplemented with 1 mM Tl2SO4, 5 μM A23187 as well as the quenchers amaranth (2 mM) and tartrazine (1 mM)) is added after an additional 3 minutes at a rate of 30 μL/sec and starting height of 30 μL • Reading intervals: First sequence—3 sec×5, 2 sec×24 and 5 sec×25 • Second sequence—1 sec×5, 2 sec×24 and 5 sec×36
Addition plates (compound plate and stimulus plate) are placed in positions 2 and 3, respectively. Cell plates are placed in position 1 and run using the “IK blocker (EtOH wash, two additions)” program. FLIPR will then take the appropriate measurements in accordance with the interval settings above. Fluorescence obtained after stimulation is corrected for the mean basal fluorescence (in Cl^− free assay buffer).
Full concentration/response curves are generated and IC50 values (“Inhibitory Concentration”, i.e. the concentration of the test substance at which 50% of the maximum channel activity is inhibited) are calculated. The responses are calculated based on peak values.

SMILES	IC50 [nM]
Fc1ccccc1-n1nnnc1-c1ccccc1-c1ccccc1C(F)(F)F [Compound 22, 1-(2-Fluorophenyl)-5-{2-[2-(trifluoromethyl)phenyl]phenyl}-1H-1,2,3,4-tetrazole]	1700
OCc1ccccc1-c1ccccc1-c1nnnn1-c1ccccc1F [Compound 28, (2-{2-[1-(2-Fluorophenyl)-1H-1,2,3,4-tetrazol-5-yl]phenyl}phenyl)methanol]	770
N#Cc1ccccc1-n1nnnc1-c1ccccc1-c1ccccc1OC(F)F [Compound 62, 2-(5-{2-[2-(Difluoromethoxy)phenyl]phenyl}-1H-1,2,3,4-tetrazol-1-yl)benzonitrile]	210
COc1ccccc1-c1ccccc1-c1nnnn1-c1ccccc1OC(F)F [Compound 59, 1-[2-(Difluoromethoxy)phenyl]-5-[2-(2-methoxyphenyl)phenyl]-1H-1,2,3,4-tetrazole]	69
FCc1ccccc1-c1ccccc1-c1nnnn1-c1ccccc1F [Compound 33, 5-{2-[2-(Fluoromethyl)phenyl]phenyl}-1-(2-fluorophenyl)-1H-1,2,3,4-tetrazole]	17
CCc1ccccc1-c1ccccc1-c1nnnn1-c1ccccc1F [Compound 20, 5-[2-(2-Ethylphenyl)phenyl]-1-(2-fluorophenyl)-1H-1,2,3,4-tetrazole]	290
COc1ccccc1-n1nnnc1-c1ccccc1-c1ccccc1F [Compound 54, 5-[2-(2-Fluorophenyl)phenyl]-1-(2-methoxyphenyl)-1H-1,2,3,4-tetrazole]	780
COc1ccccc1-c1ccccc1-c1nnnn1-c1ccccc1C#N [Compound 56, 2-{5-[2-(2-Methoxyphenyl)phenyl]-1H-1,2,3,4-tetrazol-1-yl}benzonitrile]	64
COCc1ccccc1-c1ccccc1-c1nnnn1-c1ccccc1F [Compound 29, 1-(2-Fluorophenyl)-5-{2-[2-(methoxymethyl)phenyl]phenyl}-1H-1,2,3,4-tetrazole]	58
COc1ccccc1-c1ccccc1-c1nnnn1-c1ccccc1O [Compound 53, 2-{5-[2-(2-Methoxyphenyl)phenyl]-1H-1,2,3,4-tetrazol-1-yl}phenol]	1200
CN(C)c1ccccc1-c1ccccc1-c1nnnn1-c1ccccc1F [Compound 26, 2-{2-[1-(2-Fluorophenyl)-1H-1,2,3,4-tetrazol-5-yl]phenyl}-N,N-dimethylaniline]	820
Fc1ccccc1-n1nnnc1-c1ccccc1-c1ccccc1 [Compound 40, 1-(2-Fluorophenyl)-5-(2-phenylphenyl)-1H-1,2,3,4-tetrazole]	800
COc1ccccc1-c1ccccc1-c1nnnn1-c1ccccc1Cl [Compound 49, 1-(2-Chlorophenyl)-5-[2-(2-methoxyphenyl)phenyl]-1H-1,2,3,4-tetrazole]	540
CSc1ccccc1-c1ccccc1-c1nnnn1-c1ccccc1F [Compound 14, 1-(2-Fluorophenyl)-5-{2-[2-(methylthio)phenyl]phenyl}-1H-1,2,3,4-tetrazole]	460
Fc1ccccc1-n1nnnc1-c1ccccc1-c1ccccc1C(F)F [Compound 32, 5-{2-[2-(Difluoromethyl)phenyl]phenyl}-1-(2-fluorophenyl)-1H-1,2,3,4-tetrazole]	870
c1ccc(-c2ccccc2-c2nnnn2-c2ccccc2)cc1 [Compound 65, 1-Phenyl-5-(2-phenylphenyl)-1H-1,2,3,4-tetrazole]	890
Fc1ccccc1-n1nnnc1-c1ccccc1-c1ccccc1OC(F)(F)F [Compound 15, 1-(2-Fluorophenyl)-5-{2-[2-(trifluoromethoxy)phenyl]phenyl}-1H-1,2,3,4-tetrazole]	1700
O=Cc1ccccc1-c1ccccc1-c1nnnn1-c1ccccc1F [Compound 21, 2-{2-[1-(2-Fluorophenyl)-1H-1,2,3,4-tetrazol-5-yl]phenyl}benzaldehyde]	550
COc1ccccc1-c1ccccc1-c1nnnn1-c1ccccc1OC [Compound 51, 1-(2-Methoxyphenyl)-5-[2-(2-methoxyphenyl)phenyl]-1H-1,2,3,4-tetrazole]	1200
Fc1ccccc1-c1ccccc1-c1nnnn1-c1ccccc1OC(F)F [Compound 58, 1-[2-(Difluoromethoxy)phenyl]-5-[2-(2-fluorophenyl)phenyl]-1H-1,2,3,4-tetrazole]	1100
Fc1ccccc1-c1ccccc1-c1nnnn1-c1ccccc1Cl [Compound 48, 1-(2-Chlorophenyl)-5-[2-(2-fluorophenyl)phenyl]-1H-1,2,3,4-tetrazole]	1000
O/N=C/c1ccccc1-c1ccccc1-c1nnnn1-c1ccccc1F [Compound 30, (E)-N-[(2-{2-[1-(2-Fluorophenyl)-1H-1,2,3,4-tetrazol-5-yl]phenyl}phenyl)methylidene]hydroxylamine]	57

The remaining lines, values ahead:

IC50 [nM]	SMILES
30	COCCOc1ccccc1-c1ccccc1-c1nnnn1-c1ccccc1F [Compound 4, 1-(2-Fluorophenyl)-5-{2-[2-(2-methoxyethoxyl)phenyl]phenyl}-1H-1,2,3,4-tetrazole]
360	Fc1ccccc1-n1nnnc1-c1ccccc1-c1ccccc1Cl [Compound 24, 5-[2-(2-Chlorophenyl)phenyl]-1-(2-fluorophenyl)-1H-1,2,3,4-tetrazole]
300	FCOc1ccccc1-c1ccccc1-c1nnnn1-c1ccccc1F [Compound 12, 5-{2-[2-(Fluoromethoxy)phenyl]phenyl}-1-(2-fluorophenyl)-1H-1,2,3,4-tetrazole]
5900	Oc1ccccc1-c1ccccc1-c1nnnn1-c1ccccc1F [Compound 2, 2-{2-[1-(2-Fluorophenyl)-1H-1,2,3,4-tetrazol-5-yl]phenyl}phenol]
710	Fc1ccccc1-n1nnnc1-c1ccccc1-c1ccccc1OCC1CC1 [Compound 6, 5-{2-[2-(Cyclopropylmethoxy)phenyl]phenyl}-1-(2-fluorophenyl)-1H-1,2,3,4-tetrazole]
900	Nc1ccccc1-c1ccccc1-c1nnnn1-c1ccccc1F [Compound 27, 2-{2-[1-(2-Fluorophenyl)-1H-1,2,3,4-tetrazol-5-yl]phenyl}aniline]
700	Fc1ccccc1-c1ccccc1-c1nnnn1-c1ccccc1F [Compound 25, 1-(2-Fluorophenyl)-5-[2-(2-fluorophenyl)phenyl]-1H-1,2,3,4-tetrazole]
190	COCOc1ccccc1-c1ccccc1-c1nnnn1-c1ccccc1F [Compound 16, 1-(2-Fluorophenyl)-5-{2-[2-(methoxymethoxy)phenyl]phenyl}-1H-1,2,3,4-tetrazole]
110	COc1ccccc1-c1ccccc1-c1nnnn1-c1ccccc1F [Compound 13, 1-(2-Fluorophenyl)-5-[2-(2-methoxyphenyl)phenyl]-1H-1,2,3,4-tetrazole]
16	N#CCOc1ccccc1-c1ccccc1-c1nnnn1-c1ccccc1F [Compound 7, 2-(2-{2-[1-(2-Fluorophenyl)-1H-1,2,3,4-tetrazol-5-yl]phenyl}phenoxy)acetonitrile]
590	COC(=O)COc1ccccc1-c1ccccc1-c1nnnn1-c1ccccc1F [Compound 8, Methyl 2-(2-{2-[1-(2-fluorophenyl)-1H-1,2,3,4-tetrazol-5-yl]phenyl}phenoxy)acetate]
37	CCOc1ccccc1-c1ccccc1-c1nnnn1-c1ccccc1F [Compound 3, 5-[2-(2-Ethoxyphenyl)phenyl]-1-(2-fluorophenyl)-1H-1,2,3,4-tetrazole]
290	Fc1ccccc1-n1nnnc1-c1ccccc1-c1ccccc1OC(F)F [Compound 5, 5-{2-[2-(Difluoromethoxy)phenyl]phenyl}-1-(2-fluorophenyl)-1H-1,2,3,4-tetrazole]
1000	NC(=O)COc1ccccc1-c1ccccc1-c1nnnn1-c1ccccc1F [Compound 17, 2-(2-{2-[1-(2-Fluorophenyl)-1H-1,2,3,4-tetrazol-5-yl]phenyl}phenoxy)acetamide]
